Measured values from the supplement of paper PMC10307832.

Key:
Test in all cases: relative viability (nuclei count vs DMSO), 5 days (fraction); higher = more cells survive
CAL-12T = tested on: CAL-12T
Outline: (§1)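 Relative viability equals treated-well nuclei counts divided by vehicle-well nuclei counts. Counts came from 4× images of lung cancer cell lines grown in 1536-well plates for 5 days after pin-tool dosing on the day after seeding. Dosing used one drug alone or a fixed anchor-drug dose plus five library-drug doses (not always all listed) in √10 steps, and values are medians of duplicate plates.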

LC-2-ad = tested on: LC-2-ad
Outline: as §1

NCI-H650 = tested on: NCI-H650
Outline: as §1

NCI-H1651 = tested on: NCI-H1651
Outline: as §1

NCI-H727 = tested on: NCI-H727
Outline: as §1

NCI-H596 = tested on: NCI-H596
Outline: as §1

NCI-H520 = tested on: NCI-H520
Outline: as §1

NCI-H1915 = tested on: NCI-H1915
Outline: as §1

PC-3 [JPC-3] = tested on: PC-3 [JPC-3]
Outline: as §1

NCI-H441 = tested on: NCI-H441
Outline: as §1

H3255 = tested on: H3255
Outline: as §1

NCI-H1944 = tested on: NCI-H1944
Outline: as §1

NCI-H1792 = tested on: NCI-H1792
Outline: as §1

A-427 = tested on: A-427
Outline: as §1

NCI-H460 = tested on: NCI-H460
Outline: as §1

BEN = tested on: BEN
Outline: as §1

NCI-H661 = tested on: NCI-H661
Outline: as §1

LCLC-97TM1 = tested on: LCLC-97TM1
Outline: as §1

ABC-1 = tested on: ABC-1
Outline: as §1

NCI-H2023 = tested on: NCI-H2023
Outline: as §1

NCI-H2087 = tested on: NCI-H2087
Outline: as §1

201T = tested on: 201T
Outline: as §1

Question: For `C=C1C(=O)O[C@@H](CCCCCCCC)[C@@H]1C(=O)O` [C-75] + Cc1nc(NC(=O)N2CCC[C@H]2C(N)=O)sc1-c1ccnc(C(C)(C)C(F)(F)F)c1 [Alpelisib] (partner 2 µM), which relative viability (CAL-12T; first compound 0.08 µM) is on record?
Answer: 1.19

Question: And the relative viability (CAL-12T; first compound 0.253 µM)?
Answer: 1.47

Question: And the relative viability (CAL-12T; first compound 0.8 µM)?
Answer: 1.12

Question: And the relative viability (CAL-12T; first compound 8 µM)?
Answer: 1.33

Question: What about the relative viability (LC-2-ad; first compound 0.08 µM) of the same molecule?
Answer: 0.838

Question: And the relative viability (LC-2-ad; first compound 0.253 µM)?
Answer: 0.822

Question: And the relative viability (LC-2-ad; first compound 0.8 µM)?
Answer: 0.828

Question: And the relative viability (LC-2-ad; first compound 8 µM)?
Answer: 0.891

Question: What about the relative viability (NCI-H650; first compound 0.08 µM) of the same molecule?
Answer: 1.1

Question: And the relative viability (NCI-H650; first compound 0.253 µM)?
Answer: 0.874

Question: What about the relative viability (NCI-H650; first compound 0.8 µM) of the same molecule?
Answer: 1.08

Question: And the relative viability (NCI-H650; first compound 2.53 µM)?
Answer: 1.06

Question: And the relative viability (NCI-H650; first compound 8 µM)?
Answer: 1.04

Question: What about the relative viability (NCI-H1651; first compound 0.08 µM) of the same molecule?
Answer: 0.871

Question: What about the relative viability (NCI-H1651; first compound 0.253 µM) of the same molecule?
Answer: 0.988

Question: And the relative viability (NCI-H1651; first compound 0.8 µM)?
Answer: 1.02

Question: What about the relative viability (NCI-H1651; first compound 2.53 µM) of the same molecule?
Answer: 0.793

Question: And the relative viability (NCI-H1651; first compound 8 µM)?
Answer: 0.882

Question: And the relative viability (NCI-H727; first compound 0.08 µM)?
Answer: 0.467

Question: And the relative viability (NCI-H727; first compound 0.253 µM)?
Answer: 0.76

Question: What about the relative viability (NCI-H727; first compound 0.8 µM) of the same molecule?
Answer: 0.616

Question: And the relative viability (NCI-H727; first compound 2.53 µM)?
Answer: 0.579

Question: And the relative viability (NCI-H727; first compound 8 µM)?
Answer: 0.688

Question: What about the relative viability (NCI-H596; first compound 0.08 µM) of the same molecule?
Answer: 0.51

Question: And the relative viability (NCI-H596; first compound 0.253 µM)?
Answer: 0.663

Question: What about the relative viability (NCI-H596; first compound 0.8 µM) of the same molecule?
Answer: 0.476

Question: What about the relative viability (NCI-H596; first compound 2.53 µM) of the same molecule?
Answer: 0.525

Question: And the relative viability (NCI-H596; first compound 8 µM)?
Answer: 0.54

Question: What about the relative viability (NCI-H520; first compound 0.08 µM) of the same molecule?
Answer: 0.836

Question: And the relative viability (NCI-H520; first compound 0.253 µM)?
Answer: 1.09

Question: And the relative viability (NCI-H520; first compound 0.8 µM)?
Answer: 1.02

Question: What about the relative viability (NCI-H520; first compound 2.53 µM) of the same molecule?
Answer: 0.996

Question: What about the relative viability (NCI-H520; first compound 8 µM) of the same molecule?
Answer: 1.01

Question: What about the relative viability (NCI-H1915; first compound 0.08 µM) of the same molecule?
Answer: 1.06

Question: And the relative viability (NCI-H1915; first compound 0.253 µM)?
Answer: 1.09

Question: And the relative viability (NCI-H1915; first compound 0.8 µM)?
Answer: 1.07

Question: What about the relative viability (NCI-H1915; first compound 2.53 µM) of the same molecule?
Answer: 0.51

Question: What about the relative viability (NCI-H1915; first compound 8 µM) of the same molecule?
Answer: 1.01

Question: What about the relative viability (PC-3 [JPC-3]; first compound 0.08 µM) of the same molecule?
Answer: 1.02

Question: What about the relative viability (PC-3 [JPC-3]; first compound 0.253 µM) of the same molecule?
Answer: 0.981

Question: What about the relative viability (PC-3 [JPC-3]; first compound 0.8 µM) of the same molecule?
Answer: 1.07

Question: And the relative viability (PC-3 [JPC-3]; first compound 2.53 µM)?
Answer: 1.09

Question: And the relative viability (PC-3 [JPC-3]; first compound 8 µM)?
Answer: 1.12

Question: What about the relative viability (NCI-H441; first compound 0.08 µM) of the same molecule?
Answer: 0.762

Question: What about the relative viability (NCI-H441; first compound 0.253 µM) of the same molecule?
Answer: 0.734

Question: What about the relative viability (NCI-H441; first compound 0.8 µM) of the same molecule?
Answer: 0.577

Question: What about the relative viability (NCI-H441; first compound 2.53 µM) of the same molecule?
Answer: 0.589

Question: What about the relative viability (NCI-H441; first compound 8 µM) of the same molecule?
Answer: 0.602

Question: And the relative viability (H3255; first compound 0.08 µM)?
Answer: 0.615

Question: And the relative viability (H3255; first compound 0.253 µM)?
Answer: 0.789

Question: What about the relative viability (H3255; first compound 0.8 µM) of the same molecule?
Answer: 0.638

Question: What about the relative viability (H3255; first compound 2.53 µM) of the same molecule?
Answer: 0.828

Question: What about the relative viability (H3255; first compound 8 µM) of the same molecule?
Answer: 0.78

Question: What about the relative viability (NCI-H1944; first compound 0.08 µM) of the same molecule?
Answer: 0.824

Question: And the relative viability (NCI-H1944; first compound 0.253 µM)?
Answer: 0.655

Question: What about the relative viability (NCI-H1944; first compound 0.8 µM) of the same molecule?
Answer: 0.916

Question: What about the relative viability (NCI-H1944; first compound 8 µM) of the same molecule?
Answer: 0.818

Question: What about the relative viability (NCI-H1792; first compound 0.08 µM) of the same molecule?
Answer: 0.67

Question: And the relative viability (NCI-H1792; first compound 0.253 µM)?
Answer: 0.728

Question: And the relative viability (NCI-H1792; first compound 0.8 µM)?
Answer: 0.687

Question: What about the relative viability (NCI-H1792; first compound 2.53 µM) of the same molecule?
Answer: 0.581

Question: And the relative viability (NCI-H1792; first compound 8 µM)?
Answer: 0.673

Question: What about the relative viability (A-427; first compound 0.08 µM) of the same molecule?
Answer: 1.06

Question: What about the relative viability (A-427; first compound 0.253 µM) of the same molecule?
Answer: 1.08

Question: What about the relative viability (A-427; first compound 0.8 µM) of the same molecule?
Answer: 1.14

Question: What about the relative viability (A-427; first compound 2.53 µM) of the same molecule?
Answer: 0.95

Question: What about the relative viability (A-427; first compound 8 µM) of the same molecule?
Answer: 1.03

Question: And the relative viability (NCI-H460; first compound 0.08 µM)?
Answer: 0.517

Question: And the relative viability (NCI-H460; first compound 0.253 µM)?
Answer: 0.485

Question: And the relative viability (NCI-H460; first compound 0.8 µM)?
Answer: 0.475

Question: And the relative viability (NCI-H460; first compound 8 µM)?
Answer: 0.374

Question: And the relative viability (BEN; first compound 0.08 µM)?
Answer: 0.983

Question: And the relative viability (BEN; first compound 0.253 µM)?
Answer: 1.15

Question: And the relative viability (BEN; first compound 0.8 µM)?
Answer: 0.953

Question: And the relative viability (BEN; first compound 2.53 µM)?
Answer: 0.926

Question: And the relative viability (BEN; first compound 8 µM)?
Answer: 0.91

Question: What about the relative viability (NCI-H661; first compound 0.08 µM) of the same molecule?
Answer: 0.545

Question: What about the relative viability (NCI-H661; first compound 0.253 µM) of the same molecule?
Answer: 0.477

Question: What about the relative viability (NCI-H661; first compound 0.8 µM) of the same molecule?
Answer: 0.657

Question: What about the relative viability (NCI-H661; first compound 2.53 µM) of the same molecule?
Answer: 0.409

Question: And the relative viability (NCI-H661; first compound 8 µM)?
Answer: 0.718

Question: And the relative viability (LCLC-97TM1; first compound 0.08 µM)?
Answer: 0.286

Question: What about the relative viability (LCLC-97TM1; first compound 0.253 µM) of the same molecule?
Answer: 0.376

Question: What about the relative viability (LCLC-97TM1; first compound 0.8 µM) of the same molecule?
Answer: 0.225

Question: What about the relative viability (LCLC-97TM1; first compound 2.53 µM) of the same molecule?
Answer: 0.251

Question: What about the relative viability (LCLC-97TM1; first compound 8 µM) of the same molecule?
Answer: 0.271

Question: And the relative viability (ABC-1; first compound 0.08 µM)?
Answer: 0.983

Question: What about the relative viability (ABC-1; first compound 0.253 µM) of the same molecule?
Answer: 1.12

Question: What about the relative viability (ABC-1; first compound 0.8 µM) of the same molecule?
Answer: 0.879

Question: And the relative viability (ABC-1; first compound 2.53 µM)?
Answer: 0.991

Question: What about the relative viability (ABC-1; first compound 8 µM) of the same molecule?
Answer: 0.585

Question: And the relative viability (NCI-H2023; first compound 0.08 µM)?
Answer: 0.637

Question: What about the relative viability (NCI-H2023; first compound 0.253 µM) of the same molecule?
Answer: 0.715

Question: What about the relative viability (NCI-H2023; first compound 0.8 µM) of the same molecule?
Answer: 0.592

Question: And the relative viability (NCI-H2023; first compound 2.53 µM)?
Answer: 0.419

Question: And the relative viability (NCI-H2023; first compound 8 µM)?
Answer: 0.543

Question: And the relative viability (NCI-H2087; first compound 0.08 µM)?
Answer: 1.07

Question: What about the relative viability (NCI-H2087; first compound 0.253 µM) of the same molecule?
Answer: 0.921

Question: And the relative viability (NCI-H2087; first compound 0.8 µM)?
Answer: 1.02

Question: What about the relative viability (NCI-H2087; first compound 2.53 µM) of the same molecule?
Answer: 0.682

Question: And the relative viability (NCI-H2087; first compound 8 µM)?
Answer: 0.934

Question: What about the relative viability (201T; first compound 0.08 µM) of the same molecule?
Answer: 0.981

Question: What about the relative viability (201T; first compound 0.253 µM) of the same molecule?
Answer: 1.08

Question: And the relative viability (201T; first compound 0.8 µM)?
Answer: 1.02

Question: And the relative viability (201T; first compound 2.53 µM)?
Answer: 0.975

Question: What about the relative viability (201T; first compound 8 µM) of the same molecule?
Answer: 1.07
